According to US20230372290A1, “FORMULATIONS COMPRISING BOTANICAL EXTRACTS” (APEX BIOTECH RESEARCH PTY LTD, priority 2020, published 2023):
Where two headings read alike, the source gives them in different places.

Tests used:
SARS-CoV-2 (Vic 01) = assay: microbe, parasite or virus in culture; format: cell-based; settings: for Microscopy at day 3: Vero cells, 1000 TCID50 SARS-CoV-2, cytopathic effect (CPE)
ACE2 mRNA = format: cell-based, African green monkey (Chlorocebus sp)
ACE2 protein = ACE2 protein by ELISA in cell lysate of CACO-2 cells; format: cell-based, human; settings: 72 hours, 1 μM daily for three days, compared to UP-P, FIG. 3
Procedure: FIG. 3 illustrates the expression of ACE2 protein by ELISA in cell lysate of CACO-2 cells 72 hours following treatment with andrographolide (UP-A) and piceid (UP-P) (1 μM) daily for three days.
For ACE2 protein measurements, Caco-2 cells were scraped from each well in ice-cold RIPA buffer for ELISA assays. To determine the quantity of ACE2 in Caco-2 cells an Angiotensin Converting Enzyme 2 (ACE2) ELISA Kit (CusaBio, Wuhan, Hubei, China, catalogue number: CSB-E17204m) was performed on samples as per the manufacturers protocol. Briefly, each of the samples was loaded with Sample Diluent in duplicate wells. A standard curve was prepared from a Standard solution provided. 0, 6.25, 12.5, 25, 50, 100, 200 and 400 μg/mL of the standard was added to a series of wells in duplicate. The final volume of each standard well was made up to […] with the addition of Sample Diluent. […] of provided Biotin-antibody (1×) was added to each well and then after washing steps, […] of HRP-avidin antibody (1×). The plate was put on shake mode on a CLARIOstarPlus Multi-Mode Microplate Reader (BMG Labtech, Ortenberg, Germany) to ensure proper mixing before being scanned at Ex/Em=570/540 nm in an end point mode.

M^pro = M^pro (Severe acute respiratory syndrome coronavirus 2, UniProt P0DTD1); assay: Initial in silico and enzymology studies targeting M^pro

| SMILES | Microscopy at day 3 (SARS-CoV-2 (Vic 01); drug conc. 0.078125 μM) | Microscopy at day 3 (SARS-CoV-2 (Vic 01); drug conc. 0.15625 μM) | Microscopy at day 3 (SARS-CoV-2 (Vic 01); drug conc. 0.3125 μM) | Microscopy at day 3 (SARS-CoV-2 (Vic 01); drug conc. 0.625 μM) | Microscopy at day 3 (SARS-CoV-2 (Vic 01); drug conc. 1.25 μM) | Microscopy at day 3 (SARS-CoV-2 (Vic 01); drug conc. 2.5 μM) | Microscopy at day 3 (SARS-CoV-2 (Vic 01); drug conc. 5 μM) | Microscopy at day 3 (SARS-CoV-2 (Vic 01); drug conc. 10 μM) | Microscopy at day 3 (SARS-CoV-2 (Vic 01); drug conc. 20 μM) | Microscopy at day 3 (SARS-CoV-2 (Vic 01); drug conc. 40 μM) | ACE2 mRNA expression (ACE2 mRNA; Vero (AGM) cells, 48 h, FIG. 1) | other results |
| --- | --- | --- | --- | --- | --- | --- | --- | --- | --- | --- | --- | --- |
| C=C1CCC2[C@@](C)(CC[C@@H](O)[C@@]2(C)CO)C1C/C=C1/C(=O)OCC1O (stereo partly drawn) [Andrographis, 3-[2-[Decahydro-6-hydroxy-5-(hydroxymethyl)-5,8a-dimethyl-2-methylene-1-napthalenyl]ethylidene]dihydro-4-hydroxy-2(3H)-furanone] | CPE | CPE | CPE | CPE | CPE | CPE | CPE | CPE | CPE | Toxicity | significantly decreased | IC50 (SARS-CoV-2 (Vic 01); Severe acute respiratory syndrome coronavirus 2, Vero, 72 h, read-out: IC50 calculated from virus titration (TCID50 data)): 3.25 µM; antiviral activity against SARS-CoV-2 (SARS-CoV-2 (Vic 01); alone and in combination with piceid and ursolic acid): showed antiviral activity; time of maximal effect on ACE2 mRNA expression (ACE2 mRNA; FIG. 2, decreasing at 48 hours and diminishing at 72 hours): 24 h; concentration below which loss of efficacy is observed (ACE2 mRNA) (ACE2 mRNA; FIG. 2 dose response): below 0.5 μM; concentration achieving the maximal response (ACE2 mRNA) (ACE2 mRNA; FIG. 2 dose response, no substantial increase in activity at higher doses): 1 µM; ACE2 mRNA expression (ACE2 mRNA; Vero (AGM) cells, 24 hours, FIG. 2): decreasing ACE2 mRNA expression; dose with the greatest effect on ACE2 mRNA expression (ACE2 mRNA; Vero (AGM) cells, 48 h, FIG. 1, lowest dose): 1 µM; ACE2 protein levels by ELISA (ACE2 protein): decreased |
| OCC1O[C@@H](Oc2cc(O)cc(/C=C/c3ccc(O)cc3)c2)C(O)C(O)[C@@H]1O (stereo partly drawn) [Piceid, 2-[3-Hydroxy-5-[(E)-2-(4-hydroxyphenyl)ethenyl]phenoxy]-6-(hydroxymethyl)oxane-3,4,5-triol] | CPE | CPE | CPE | CPE | CPE | CPE | CPE | CPE | CPE | CPE | no discernible effect | candidate targeting M^pro (M^pro): promising candidate |
| C[C@H]1[C@H](C)CC[C@]2(C(=O)O)CC[C@]3(C)C(=CC[C@@H]4[C@@]5(C)CC[C@H](O)C(C)(C)[C@@H]5CC[C@]43C)[C@H]12 [Ursolic acid, (1S,2R,4aS,6aR,6aS,6bR,8aR,10S,12aR,14bS)-10-Hydroxy-1,2,6a,6b,9,9,12a-heptamethyl-2,3,4,5,6,6a,7,8,8a,10,11,12,13,14b-tetradecahydro-1H-picene-4a-carboxylic acid] | CPE | CPE | CPE | CPE | CPE | CPE | CPE | CPE | CPE | Toxicity | – | ACE2 mRNA expression (ACE2 mRNA): decreased ACE2 mRNA expression to a lesser extent in a dose dependent manner |
